Experimental data: patent publication US20220177932A1, “PROCESS AND COMPOSITION FOR CONTROLLING ETHANOL PRODUCTION” (priority 2020, published 2022)

What was measured:
Clostridium ljungdahlii = assay: Syngas fermentation in stirred tank bioreactor, effect of vitamin feed rates on specific ethanol productivity; type: cell-based; settings: Experiment 4; vitamin B5 feed held constant below about 30 ug/g of cells produced, vitamin B1 and B7 feeds increased
From the text: A synthesis gas containing CO, CO2 and H2 was continuously introduced into a stirred tank bioreactor containing Clostridium ljungdahlii (Experiments 1-4) or Clostridium authoethanogenum (Experiment 5), along with a liquid medium containing trace metals and salts as described herein. Vitamins were provided using dedicated feed lines. A New Brunswick Bioflow reactor containing the fermentation medium was started with actively growing Clostridium ljungdahlii (Experiments 1-5) or with Clostridium authoethanogenum (Experiment 6). The rate of agitation of the reactor was set to 800 rpm at the start of the experiment and this agitation rate was maintained throughout the experiment. Feed gas flow to the reactor was increased based on the H2 and CO uptake of the culture. Temperature in the bioreactor was maintained at about 38° C. throughout the experiment. Samples of gas feed into the bioreactor and off-gas from the bioreactor and fermentation broth in the bioreactor were taken at intervals, for example feed gas, off-gas and fermentation broth were sampled about daily, once two hours and once four hours respectively. Above samples were analyzed for consumption or production of various gas components, broth acetic acid concentration, broth ethanol concentration and the optical density (cell density) of the culture. […]

[1] = tested on: Clostridium authoethanogenum; assay: as above; type: cell-based; settings: Experiment 5
From the text: A synthesis gas containing CO, CO2 and H2 was continuously introduced into a stirred tank bioreactor containing Clostridium ljungdahlii (Experiments 1-4) or Clostridium authoethanogenum (Experiment 5), along with a liquid medium containing trace metals and salts as described herein. Vitamins were provided using dedicated feed lines. A New Brunswick Bioflow reactor containing the fermentation medium was started with actively growing Clostridium ljungdahlii (Experiments 1-5) or with Clostridium authoethanogenum (Experiment 6). The rate of agitation of the reactor was set to 800 rpm at the start of the experiment and this agitation rate was maintained throughout the experiment. Feed gas flow to the reactor was increased based on the H2 and CO uptake of the culture. Temperature in the bioreactor was maintained at about 38° C. throughout the experiment. Samples of gas feed into the bioreactor and off-gas from the bioreactor and fermentation broth in the bioreactor were taken at intervals, for example feed gas, off-gas and fermentation broth were sampled about daily, once two hours and once four hours respectively. Above samples were analyzed for consumption or production of various gas components, broth acetic acid concentration, broth ethanol concentration and the optical density (cell density) of the culture. The unaroused volume of the reactor was maintained between 3000 to 3250 ml throughout the experiment. Further, the gas flow to the reactor was maintained at required gas flow rates by using a mass flow controller. The feed […] composition was 23% H2, 35% CO, 29% CO2 and 13% N2. In the following reactor runs, vitamins biotin, thiamine and pantothenate were feed to the reactor using a dedicated stream. Steady state conditions were maintained for a period of time greater than 5 times the cell retention time. Cell mass was essentially replaced 5 times before data collection phase started. After data set was collected, vitamin feed rate was adjusted, adjustment phase was repeated, and next data set was collected. Adjustment phase refers to an amount of time necessary for the culture to equilibrate to a change. In this experiment culture was allowed at least a 3-day adjustment phase. A cell recycle system (CRS) was attached to the reactor before the start of the experiment. During the experiment, medium feed rate was 3.0 to 6.0 ml/min, and through the CRS, 0-5 ml/min permeate was drawn out from the reactor. The following tables describe the vitamin feed rates and specific ethanol productivity (SEP). Experiment 5: Fermentation with Clostridium authoethanogenum with Biotin (B7) and Thiamine (B1) feeds held at lower base levels with increasing Pantothenate (B5) Feeds.

SMILES | effect of increasing feed rate on specific ethanol productivity (Clostridium ljungdahlii) | SEP (specific ethanol productivity) ([1]; feeds pantothenate 48.47, biotin 29.54, thiamine 23.10 μg/g cells produced) [g//day/g cells] | SEP (specific ethanol productivity) ([1]; feeds pantothenate 58.08, biotin 26.65, thiamine 20.84 μg/g cells produced) [g//day/g cells] | SEP (specific ethanol productivity) ([1]; feeds pantothenate 62.90, biotin 23.04, thiamine 18.01 μg/g cells produced) [g//day/g cells] | SEP (specific ethanol productivity) ([1]; feeds pantothenate 68.78, biotin 25.19, thiamine 19.70 μg/g cells produced) [g//day/g cells] | SEP (specific ethanol productivity) ([1]; feeds pantothenate 70.67, biotin 21.62, thiamine 16.91 μg/g cells produced) [g//day/g cells] | SEP (specific ethanol productivity) ([1]; feeds pantothenate 81.90, biotin 18.79, thiamine 14.69 μg/g cells produced) [g//day/g cells] | specific ethanol productivity increase ([1]; vitamin B5 feed from about 48 to about 82 ug/g of cells produced, vitamin B1 and B7 feeds under 30, further under 20 ug/g of cells produced)
Cc1ncc(C[n+]2csc(CCO)c2C)c(N)n1 [vitamin B1, thiamine] | did not increase specific ethanol productivity |  |  |  |  |  |  | 
O=C(O)CCCC[C@@H]1SC[C@@H]2NC(=O)N[C@@H]21 [vitamin B7, biotin] | did not increase specific ethanol productivity |  |  |  |  |  |  | 
CC(C)(CO)[C@@H](O)C(=O)NCCC(=O)O [Pantothenate (B5), pantothenate] |  | 8.08 | 8.24 | 8.51 | 9.39 | 9.70 | 9.98 | about 24%
